Measured values as given in patent publication US20260137758A1, “TREATMENT OF STEATOTIC LIVER DISEASE ASSOCIATED WITH METABOLIC DYSFUNCTION” (priority 2024, published 2026).
Starred links: 1 amine or outer side, 2 acyl side, 3 side chain; linkers in the order of their positions; H or OH if unused. Non-standard residues stand in square brackets, D forms with d. Residues, ends and D or L forms follow the SMILES beside them. Groups on a side chain read outwards from the residue. *: point of attachment. Isobutyryl(2-(3-CN-5-F-Ph)) = CC(C)(C(=O)*)c1cc(F)cc(C#N)c1; C20 diacid = O=C(O)CCCCCCCCCCCCCCCCCCC(=O)*; γGlu = O=C(O)[C@H](CCC(=O)[*:2])N[*:1]; AEEA = NCCOCCOCC(=O)O; Aib = CC(C)(N)C(=O)O; βAla = NCCC(=O)O

Key:
human GIPR [1] = molecular target: T1, human GIPR (Homo sapiens, UniProt P48546); assay: cAMP accumulation (HitHunter), CHO-K1 cells expressing SNAP-human GIPR; assay type: cell-based; design: expressed in transfected cells
T1 sequence (P48546 22-466): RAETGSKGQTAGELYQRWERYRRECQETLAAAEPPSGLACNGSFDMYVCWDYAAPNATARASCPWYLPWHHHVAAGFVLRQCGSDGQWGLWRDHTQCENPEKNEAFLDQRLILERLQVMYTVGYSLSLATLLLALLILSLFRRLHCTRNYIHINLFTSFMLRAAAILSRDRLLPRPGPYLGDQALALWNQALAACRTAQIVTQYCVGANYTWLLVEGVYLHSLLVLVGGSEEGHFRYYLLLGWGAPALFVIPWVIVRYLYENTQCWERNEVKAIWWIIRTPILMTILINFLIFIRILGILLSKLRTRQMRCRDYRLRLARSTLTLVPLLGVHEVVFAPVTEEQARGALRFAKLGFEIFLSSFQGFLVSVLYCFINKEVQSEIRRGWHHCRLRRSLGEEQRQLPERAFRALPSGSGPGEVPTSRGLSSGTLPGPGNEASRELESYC
Description: (§1) cAMP production was measured using the HitHunter® cAMP Assay for Small Molecules kit in mammalian cell lines overexpressing either GLP-1R or GIPR. […] A total of 10,000 cells in 5 μL of media were added to each well of a 384-well, low-volume assay plate. For mouse receptor cAMP assays, either U2OS cells stably expressing mouse GLP-1R (DiscoverX 95-0179C3) or CHO-K1 cells stably expressing mouse GIPR (DiscoverX 95-0154C2) were used. Twenty-four hours before the assay, 5000-10,000 cells per well were plated in 384-well, low-volume tissue culture-treated plates in Assay Complete Cell Plating reagent 2 (murine GIPR cells) or 5 (murine GLP-1R cells). […] Compounds were diluted 1:1 in DMSO and 5 nL was transferred to the tissue-culture plate wells using an ECHO Acoustic Liquid Handler (Beckman Coulter).
(§2) Each dilution series was normalized to the adjacent high (100%) and low (0%) wells on the plate. Dose-response data were fitted to a curve using nonlinear regression analysis using the “log(agonist) vs response-variable slope” setting, where:
(§3) Y=Bottom+(Top−Bottom)/(1+10^((Log EC50−X)*HillSlope))
(§4) and the Hillslope was constrained to 1. Compound potency and efficacy were extracted from this regression analysis. […] For NanoBiT assays, a single time point during the 30-minute activity measurements was selected for maximum luminescence response. […]

human GIPR [2] = molecular target: T1, human GIPR; assay: β-arrestin-2 recruitment (NanoBiT), HEK293, human GIPR; assay type: cell-based; design: expressed in transfected cells; host or cells: HEK293 (stably or transiently transfected); conditions: HEK293, read-out: β-arrestin-2 % Emax
Description: (§5) β-arrestin recruitment was measured using Promega's NanoBiT technology and Nano-Glo® Live Cell Substrate in HEK293 cells. β-arrestin-2 recruitment was measured using Promega's NanoBiT technology and Nano-Glo® Live Cell Substrate (catalog number N2012), which uses the NanoLuc luciferase split into two subunits called LgBiT and SmBiT. HEK293 cells were either stably or transiently transfected with equal amounts of DNA plasmids expressing the fusion proteins human GLP-1R-LgBiT or GIPR-LgBiT and SmBiT-(human)-β-arrestin-2; similar methods were used for mouse GLP-1R, GIPR, and β-arrestin-2. […] The following day, the media was removed and replaced with 10 μL of a 1:100 dilution of Nano-Glo® Live Cell Substrate with NanoBiT buffer and OptiMem and equilibrated to room temperature for ten minutes covered. Background luminescence was measured before adding 100 nL of compound dilutions (made in a 1:1 ratio in DMSO). Compounds were transferred using an ECHO Acoustic Liquid Handler (Beckman Coulter) and luminescence was measured at 1.5-minute intervals for 15 minutes using an EnVision Multimode Plate Reader (PerkinElmer; Waltham, MA).
(§6) Each dilution series was normalized to the adjacent high (100%) and low (0%) wells on the plate. […]
(§7) and the Hillslope was constrained to 1. […] For NanoBiT assays, a single time point during the 30-minute activity measurements was selected for maximum luminescence response. […]

human GLP-1R [3] = molecular target: T2, human GLP-1R (Homo sapiens, UniProt P43220); assay: Receptor internalization (Nano-Glo HiBiT), HEK293, human GLP-1R; assay type: cell-based; design: expressed in transfected cells
T2 sequence (P43220 24-463): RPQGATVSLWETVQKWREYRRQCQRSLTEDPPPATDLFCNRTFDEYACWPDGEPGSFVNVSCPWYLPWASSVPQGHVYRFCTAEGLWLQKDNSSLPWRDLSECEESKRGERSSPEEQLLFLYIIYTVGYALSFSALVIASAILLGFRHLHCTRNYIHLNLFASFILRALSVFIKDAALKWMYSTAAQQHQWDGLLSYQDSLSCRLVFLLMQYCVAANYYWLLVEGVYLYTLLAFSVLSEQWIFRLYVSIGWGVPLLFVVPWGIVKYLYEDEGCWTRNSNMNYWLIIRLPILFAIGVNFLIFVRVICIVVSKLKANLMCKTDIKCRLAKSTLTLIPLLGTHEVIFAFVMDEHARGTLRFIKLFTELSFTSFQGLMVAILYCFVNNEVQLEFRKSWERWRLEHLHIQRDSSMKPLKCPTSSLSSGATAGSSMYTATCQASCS
Description: Receptor internalization for human GLP-1R and GIPR was measured with Promega's Nano-Glo® HiBit extracellular detection system in HEK293 cells. Receptor internalization for human GLP-1R and GIPR was measured using the Promega Nano-Glo© HiBit extracellular detection system (Promega Corporation). HEK293 cells were transiently transfected with 1000:1 ratio of carrier plasmid (pcDNA3.1) and plasmids containing HiBiT-tagged human GLP-1R or human GIPR sequences (Promega Corporation). Cells were dissociated the following day using TrypLE express enzyme (ThermoFisher Scientific) and plated in 96-well plates at 80,000-100,000 cells per well. Forty-eight hours post-transfection, media was replaced with equal parts CO2 independent media (Gibco) and Nano-Glo extracellular buffer containing LgBiT protein (diluted 1:100), and Nano-Glo HiBiT extracellular substrate (diluted 1:50). After a 15-minute equilibration and background luminescence reading, test compounds were added and the luminescence was measured for 120 minutes at two-minute intervals using an EnVision Multimode Plate Reader (PerkinElmer).
as §4

human GLP-1R [4] = molecular target: T2, human GLP-1R; assay: β-arrestin-2 recruitment (NanoBiT), HEK293, human GLP-1R; assay type: cell-based; design: expressed in transfected cells; host or cells: HEK293 (stably or transiently transfected); conditions: HEK293, read-out: β-arrestin-2 % Emax
Description: as §5, §6, §7

human GLP-1R [5] = molecular target: T2, human GLP-1R; assay: cAMP accumulation (HitHunter), CHO-K1 cells expressing SNAP-human GLP-1R; assay type: cell-based; design: expressed in transfected cells
Description: as §1, §2, §3, §4

[6] = Phase 1 SAD: pharmacokinetics; assay type: in vivo; conditions: human, serum; SAD Cohort 4 (6.0 mg) single SC dose; read-out: Vz/F (mean)
Description: PK parameters were also summarized using descriptive statistics (number of participants, mean, geometric mean, standard deviation, coefficient of variation, median, minimum, and maximum). In the SAD portion, the power model was used to assess dose proportionality.

Work on CC[C@H](C)[C@H](NC(=O)[C@H](CC(C)C)NC(=O)[C@H](Cc1c[nH]c2ccccc12)NC(=O)[C@H](CCC(N)=O)NC(=O)[C@@H](NC(=O)[C@H](Cc1ccccc1)NC(=O)[C@H](C)NC(=O)[C@H](CCCCNC(=O)COCCOCCNC(=O)COCCOCCNC(=O)CC[C@H](NC(=O)CCCCCCCCCCCCCCCCCCC(=O)O)C(=O)O)NC(=O)[C@H](CCC(N)=O)NC(=O)[C@H](C)NC(=O)[C@@H](NC(=O)[C@H](CCCCN)NC(=O)[C@H](CC(=O)O)NC(=O)[C@H](CC(C)C)NC(=O)C(C)(C)NC(=O)[C@@H](NC(=O)[C@H](CO)NC(=O)[C@H](Cc1ccc(O)cc1)NC(=O)[C@H](CC(=O)O)NC(=O)[C@H](CO)NC(=O)[C@@H](NC(=O)[C@H](Cc1ccccc1)NC(=O)[C@@H](NC(=O)CNC(=O)[C@H](CCC(=O)O)NC(=O)CCNC(=O)C(C)(C)c1cc(F)cc(C#N)c1)[C@@H](C)O)[C@@H](C)O)[C@@H](C)CC)[C@@H](C)CC)C(C)C)C(=O)N[C@@H](C)C(=O)NCC(=O)NCC(=O)N1CCC[C@H]1C(=O)N[C@@H](CO)C(=O)N[C@@H](CO)C(=O)NCC(=O)N[C@@H](C)C(=O)N1CCC[C@H]1C(=O)N1CCC[C@H]1C(=O)N1CCC[C@H]1C(=O)N[C@@H](CO)C(N)=O [CT-388] ({Isobutyryl(2-(3-CN-5-F-Ph))-βAla}-EGTFTSDYSI[Aib]LDKIAQK([AEEA-AEEA-γGlu-C20 diacid])AFVQWLIAGGPSSGAPPPS-NH2) yielded an Emax (human GIPR [1]) of 92%, an Emax (human GIPR [2]) of 28% and an Emax (human GLP-1R [3]) of 6%. The Emax (human GLP-1R [4]) was 4%, the Emax (human GLP-1R [5]) was 99% and the Vd/F [6] was 11.4 L.
